In ChEMBL document CHEMBL4725389, “Novel Blocker of Onco SK3 Channels Derived from Scorpion Toxin Tamapin and Active against Migration of Cancer Cells” (ACS Med Chem Lett, 2020):
Activity calls are given as the source filed them. The calls are words filed in the database; no cut-off is given here. Positions of bridges follow the written chain, without caps; N, C: chain ends. Residues, ends and D or L forms follow the SMILES beside them.

Legend:
[1] = molecular target: Small conductance calcium-activated potassium channel protein 2 (Rattus norvegicus) (UniProt P70604); assay: Inhibition of recombinant rat SK2 expressed in HEK293 cells at 10 nM and holding potential at 0 mV and ramp voltage from -100 to 100 mV by whole cell patch clamp method relative to control; format: cell-based
Chain of Small conductance calcium-activated potassium channel protein 2 (Rattus norvegicus) (P70604 whole entry): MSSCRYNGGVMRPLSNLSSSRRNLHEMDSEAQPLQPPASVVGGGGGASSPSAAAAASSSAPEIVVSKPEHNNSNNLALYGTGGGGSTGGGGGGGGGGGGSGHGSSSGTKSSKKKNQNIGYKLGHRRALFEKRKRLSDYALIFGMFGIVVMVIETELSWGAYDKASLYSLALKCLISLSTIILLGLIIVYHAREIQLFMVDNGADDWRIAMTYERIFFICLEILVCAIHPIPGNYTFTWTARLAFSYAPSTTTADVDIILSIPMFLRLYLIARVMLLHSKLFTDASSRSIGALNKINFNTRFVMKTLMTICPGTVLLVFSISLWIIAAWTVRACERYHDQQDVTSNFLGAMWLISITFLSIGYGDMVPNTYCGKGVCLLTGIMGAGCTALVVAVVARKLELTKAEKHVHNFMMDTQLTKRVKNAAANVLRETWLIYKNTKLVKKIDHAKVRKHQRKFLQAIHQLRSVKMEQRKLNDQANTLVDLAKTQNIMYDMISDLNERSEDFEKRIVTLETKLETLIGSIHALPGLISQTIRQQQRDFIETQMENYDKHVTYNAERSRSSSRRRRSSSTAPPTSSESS

[2] = molecular target: Small conductance calcium-activated potassium channel protein 3 (Homo sapiens, UniProt Q9UGI6); assay: Inhibition of recombinant human SK3 expressed in HEK293T cells at 10 nM and holding potential at 0 mV and ramp voltage from -100 to 100 mV by whole cell patch clamp method relative to control; format: cell-based; conditions: HEK-293T
Chain of Small conductance calcium-activated potassium channel protein 3 (Q9UGI6 whole entry): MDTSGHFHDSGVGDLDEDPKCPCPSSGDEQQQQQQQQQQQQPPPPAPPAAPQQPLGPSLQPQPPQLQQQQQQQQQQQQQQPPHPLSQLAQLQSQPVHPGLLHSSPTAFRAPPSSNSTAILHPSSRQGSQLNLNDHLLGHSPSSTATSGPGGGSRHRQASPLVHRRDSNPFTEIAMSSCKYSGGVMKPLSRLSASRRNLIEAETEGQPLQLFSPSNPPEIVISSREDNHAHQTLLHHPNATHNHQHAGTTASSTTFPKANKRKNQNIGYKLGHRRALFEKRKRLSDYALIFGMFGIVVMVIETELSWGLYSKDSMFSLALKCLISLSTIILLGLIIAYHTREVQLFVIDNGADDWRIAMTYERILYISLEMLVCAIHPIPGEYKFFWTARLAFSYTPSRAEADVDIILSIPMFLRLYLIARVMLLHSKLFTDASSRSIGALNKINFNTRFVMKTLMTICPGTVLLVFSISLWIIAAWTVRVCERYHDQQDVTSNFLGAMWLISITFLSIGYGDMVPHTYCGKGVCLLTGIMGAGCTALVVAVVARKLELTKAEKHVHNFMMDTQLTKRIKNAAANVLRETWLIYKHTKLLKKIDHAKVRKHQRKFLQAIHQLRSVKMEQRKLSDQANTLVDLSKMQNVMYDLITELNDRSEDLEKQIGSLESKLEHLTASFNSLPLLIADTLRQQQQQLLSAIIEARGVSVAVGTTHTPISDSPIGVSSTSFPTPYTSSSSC

| Structure (SMILES) | inhibition [1] [%] | inhibition [2] |
| --- | --- | --- |
| CC[C@H](C)[C@@H]1NC(=O)[C@@H]2CSSC[C@H](NC(=O)[C@H](Cc3ccccc3)NC(=O)[C@H](C)N)C(=O)N[C@@H](CC(N)=O)C(=O)N[C@@H](CC(C)C)C(=O)N[C@@H](CCCNC(=N)N)C(=O)N[C@@H](CCCNC(=N)N)C(=O)N[C@H]3CSSC[C@H](NC(=O)[C@H](CCC(=O)O)NC(=O)[C@H](CCC(=O)O)NC(=O)CNC1=O)C(=O)N[C@@H](CCCCN)C(=O)N[C@H](C(=O)N[C@H](C(=O)N[C@@H](Cc1ccc(O)cc1)C(=O)O)C(C)C)CSSC[C@H](NC(=O)[C@H](CO)NC(=O)[C@H](CC(C)C)NC(=O)[C@H](CCC(=O)O)NC3=O)C(=O)N[C@@H](CCCNC(=N)N)C(=O)N[C@@H](CO)C(=O)N[C@@H](CC(C)C)C(=O)NCC(=O)N[C@@H](CC(C)C)C(=O)N[C@@H](CC(C)C)C(=O)NCC(=O)N[C@@H](CCCCN)C(=O)N2 (H-AFCNLRRCELSCRSLGLLGKCIGEECKCVY-OH; disulfide 3-21, 8-26, 12-28) | 40 | < 39% |
| CC[C@H](C)[C@@H]1NC(=O)[C@@H]2CSSC[C@H](NC(=O)[C@H](Cc3ccccc3)NC(=O)[C@H](C)N)C(=O)N[C@@H](CC(N)=O)C(=O)N[C@@H](CC(C)C)C(=O)N[C@@H](CCCNC(=N)N)C(=O)N[C@@H](CCCNC(=N)N)C(=O)N[C@H]3CSSC[C@H](NC(=O)[C@H](CCCCN)NC(=O)[C@H](CCC(=O)O)NC(=O)CNC1=O)C(=O)N[C@@H](CCCCN)C(=O)N[C@H](C(=O)N[C@H](C(=O)N1CCC[C@H]1C(=O)N[C@@H](Cc1ccc(O)cc1)C(=O)O)C(C)C)CSSC[C@H](NC(=O)[C@H](CO)NC(=O)[C@H](CC(C)C)NC(=O)[C@H](CCC(=O)O)NC3=O)C(=O)N[C@@H](CCCNC(=N)N)C(=O)N[C@@H](CO)C(=O)N[C@@H](CC(C)C)C(=O)NCC(=O)N[C@@H](CC(C)C)C(=O)N[C@@H](CC(C)C)C(=O)NCC(=O)N[C@@H](CCCCN)C(=O)N2 (H-AFCNLRRCELSCRSLGLLGKCIGEKCKCVPY-OH; disulfide 3-21, 8-26, 12-28) | < 39 | 40% |
| CC[C@H](C)[C@@H]1NC(=O)[C@@H]2CSSC[C@H](NC(=O)[C@H](Cc3ccccc3)NC(=O)[C@H](C)N)C(=O)N[C@@H](CC(N)=O)C(=O)N[C@@H](CC(C)C)C(=O)N[C@@H](CCCNC(=N)N)C(=O)N[C@@H](CCCNC(=N)N)C(=O)N[C@H]3CSSC[C@H](NC(=O)[C@H](CCC(=O)O)NC(=O)[C@H](CCC(=O)O)NC(=O)CNC1=O)C(=O)N[C@@H](CCCCN)C(=O)N[C@H](C(=O)N[C@H](C(=O)N1CCC[C@H]1C(=O)N[C@@H](Cc1ccc(O)cc1)C(=O)O)C(C)C)CSSC[C@H](NC(=O)[C@H](CO)NC(=O)[C@H](CC(C)C)NC(=O)[C@H](CCC(=O)O)NC3=O)C(=O)N[C@@H](CCCNC(=N)N)C(=O)N[C@@H](CO)C(=O)N[C@@H](CC(C)C)C(=O)NCC(=O)N[C@@H](CC(C)C)C(=O)N[C@@H](CC(C)C)C(=O)NCC(=O)N[C@@H](C)C(=O)N2 (H-AFCNLRRCELSCRSLGLLGACIGEECKCVPY-OH; disulfide 3-21, 8-26, 12-28) | > 85 | inactive |
| CC[C@H](C)[C@@H]1NC(=O)[C@@H]2CSSC[C@H](NC(=O)[C@H](Cc3ccccc3)NC(=O)[C@H](C)N)C(=O)N[C@@H](CC(N)=O)C(=O)N[C@@H](CC(C)C)C(=O)N[C@@H](CCCNC(=N)N)C(=O)N[C@@H](CCCNC(=N)N)C(=O)N[C@H]3CSSC[C@H](NC(=O)[C@H](CCC(=O)O)NC(=O)[C@H](CCC(=O)O)NC(=O)CNC1=O)C(=O)N[C@@H](CCCCN)C(=O)N[C@H](C(=O)N[C@H](C(=O)N[C@@H](Cc1ccc(O)cc1)C(=O)N[C@@H](CC(N)=O)C(=O)O)C(C)C)CSSC[C@H](NC(=O)[C@H](CO)NC(=O)[C@H](CC(C)C)NC(=O)[C@H](CCC(=O)O)NC3=O)C(=O)N[C@@H](CCCNC(=N)N)C(=O)N[C@@H](CO)C(=O)N[C@@H](CC(C)C)C(=O)NCC(=O)N[C@@H](CC(C)C)C(=O)N[C@@H](CC(C)C)C(=O)NCC(=O)N[C@@H](CCCCN)C(=O)N2 (H-AFCNLRRCELSCRSLGLLGKCIGEECKCVYN-OH; disulfide 3-21, 8-26, 12-28) | 40 | < 39% |
| CC[C@H](C)[C@@H]1NC(=O)[C@@H]2CSSC[C@H](NC(=O)[C@H](Cc3ccccc3)NC(=O)[C@H](C)N)C(=O)N[C@@H](CC(N)=O)C(=O)N[C@@H](CC(C)C)C(=O)N[C@@H](CCCNC(=N)N)C(=O)N[C@@H](CCCNC(=N)N)C(=O)N[C@H]3CSSC[C@H](NC(=O)[C@H](CCC(=O)O)NC(=O)[C@H](CCC(=O)O)NC(=O)CNC1=O)C(=O)N[C@@H](CCCCN)C(=O)N[C@H](C(=O)N[C@H](C(=O)N1CCC[C@H]1C(=O)N[C@@H](Cc1ccc(O)cc1)C(=O)O)C(C)C)CSSC[C@H](NC(=O)[C@H](CO)NC(=O)[C@H](CC(C)C)NC(=O)[C@H](CCC(=O)O)NC3=O)C(=O)N[C@@H](CCCNC(=N)N)C(=O)N[C@@H](CO)C(=O)N[C@@H](CC(C)C)C(=O)NCC(=O)N[C@@H](CC(C)C)C(=O)N[C@@H](CC(C)C)C(=O)NCC(=O)N[C@@H](CCC(=O)O)C(=O)N2 (H-AFCNLRRCELSCRSLGLLGECIGEECKCVPY-OH; disulfide 3-21, 8-26, 12-28) | > 85 | < 39% |
| CC[C@H](C)[C@@H]1NC(=O)[C@@H]2CSSC[C@H](NC(=O)[C@H](Cc3ccccc3)NC(=O)[C@H](C)N)C(=O)N[C@@H](CC(N)=O)C(=O)N[C@@H](CC(C)C)C(=O)N[C@@H](CCCNC(=N)N)C(=O)N[C@@H](CCCNC(=N)N)C(=O)N[C@H]3CSSC[C@H](NC(=O)[C@H](CCC(=O)O)NC(=O)[C@H](CCC(=O)O)NC(=O)CNC1=O)C(=O)N[C@@H](CCC(=O)O)C(=O)N[C@H](C(=O)N[C@H](C(=O)N1CCC[C@H]1C(=O)N[C@@H](Cc1ccc(O)cc1)C(=O)O)C(C)C)CSSC[C@H](NC(=O)[C@H](CO)NC(=O)[C@H](CC(C)C)NC(=O)[C@H](CCC(=O)O)NC3=O)C(=O)N[C@@H](CCCNC(=N)N)C(=O)N[C@@H](CO)C(=O)N[C@@H](CC(C)C)C(=O)NCC(=O)N[C@@H](CC(C)C)C(=O)N[C@@H](CC(C)C)C(=O)NCC(=O)N[C@@H](CCCCN)C(=O)N2 (H-AFCNLRRCELSCRSLGLLGKCIGEECECVPY-OH; disulfide 3-21, 8-26, 12-28) | < 39 | 40% |
| CC[C@H](C)[C@@H]1NC(=O)[C@@H]2CSSC[C@H](NC(=O)[C@H](Cc3ccccc3)NC(=O)[C@H](C)N)C(=O)N[C@@H](CC(N)=O)C(=O)N[C@@H](CC(C)C)C(=O)N[C@@H](CCCNC(=N)N)C(=O)N[C@@H](CCCNC(=N)N)C(=O)N[C@H]3CSSC[C@H](NC(=O)[C@H](CCC(=O)O)NC(=O)[C@H](CCC(=O)O)NC(=O)CNC1=O)C(=O)N[C@@H](CCCCN)C(=O)N[C@H](C(=O)N[C@H](C(=O)N1CCC[C@H]1C(=O)N[C@@H](C)C(=O)O)C(C)C)CSSC[C@H](NC(=O)[C@H](CO)NC(=O)[C@H](CC(C)C)NC(=O)[C@H](CCC(=O)O)NC3=O)C(=O)N[C@@H](CCCNC(=N)N)C(=O)N[C@@H](CO)C(=O)N[C@@H](CC(C)C)C(=O)NCC(=O)N[C@@H](CC(C)C)C(=O)N[C@@H](CC(C)C)C(=O)NCC(=O)N[C@@H](CCCCN)C(=O)N2 (H-AFCNLRRCELSCRSLGLLGKCIGEECKCVPA-OH; disulfide 3-21, 8-26, 12-28) | 40 | < 39% |
| CC[C@H](C)[C@@H]1NC(=O)[C@@H]2CSSC[C@H](NC(=O)[C@H](Cc3ccccc3)NC(=O)[C@H](C)N)C(=O)N[C@@H](CC(N)=O)C(=O)N[C@@H](CC(C)C)C(=O)N[C@@H](CCCNC(=N)N)C(=O)N[C@@H](CCCNC(=N)N)C(=O)N[C@H]3CSSC[C@H](NC(=O)[C@H](CCC(=O)O)NC(=O)[C@H](CCC(=O)O)NC(=O)CNC1=O)C(=O)N[C@@H](CCCCN)C(=O)N[C@H](C(=O)N[C@H](C(=O)N1CCC[C@H]1C(=O)N[C@@H](Cc1c[nH]cn1)C(=O)O)C(C)C)CSSC[C@H](NC(=O)[C@H](CO)NC(=O)[C@H](CC(C)C)NC(=O)[C@H](CCC(=O)O)NC3=O)C(=O)N[C@@H](CCCNC(=N)N)C(=O)N[C@@H](CO)C(=O)N[C@@H](CC(C)C)C(=O)NCC(=O)N[C@@H](CC(C)C)C(=O)N[C@@H](CC(C)C)C(=O)NCC(=O)N[C@@H](CCCCN)C(=O)N2 (H-AFCNLRRCELSCRSLGLLGKCIGEECKCVPH-OH; disulfide 3-21, 8-26, 12-28) | 40 | < 39% |
| CC[C@H](C)[C@@H]1NC(=O)[C@@H]2CSSC[C@H](NC(=O)[C@H](Cc3ccccc3)NC(=O)[C@H](C)N)C(=O)N[C@@H](CC(N)=O)C(=O)N[C@@H](CC(C)C)C(=O)N[C@@H](CCCNC(=N)N)C(=O)N[C@@H](CCCNC(=N)N)C(=O)N[C@H]3CSSC[C@H](NC(=O)[C@H](CCC(=O)O)NC(=O)[C@H](CCC(=O)O)NC(=O)CNC1=O)C(=O)N[C@@H](CCCCN)C(=O)N[C@H](C(=O)N[C@H](C(=O)N1CCC[C@H]1C(=O)N[C@@H](Cc1ccc(O)cc1)C(=O)N[C@@H](CC(N)=O)C(=O)O)C(C)C)CSSC[C@H](NC(=O)[C@H](CO)NC(=O)[C@H](CC(C)C)NC(=O)[C@H](CCC(=O)O)NC3=O)C(=O)N[C@@H](CCCNC(=N)N)C(=O)N[C@@H](CO)C(=O)N[C@@H](CC(C)C)C(=O)NCC(=O)N[C@@H](CC(C)C)C(=O)N[C@@H](CC(C)C)C(=O)NCC(=O)N[C@@H](CCCCN)C(=O)N2 (H-AFCNLRRCELSCRSLGLLGKCIGEECKCVPYN-OH; disulfide 3-21, 8-26, 12-28) | 40 | < 39% |
| CC[C@H](C)[C@@H]1NC(=O)[C@@H]2CSSC[C@H](NC(=O)[C@H](Cc3ccccc3)NC(=O)[C@H](C)N)C(=O)N[C@@H](CC(N)=O)C(=O)N[C@@H](CC(C)C)C(=O)N[C@@H](CCCNC(=N)N)C(=O)N[C@@H](CCCNC(=N)N)C(=O)N[C@H]3CSSC[C@H](NC(=O)[C@H](C)NC(=O)[C@H](CCC(=O)O)NC(=O)CNC1=O)C(=O)N[C@@H](CCCCN)C(=O)N[C@H](C(=O)N[C@H](C(=O)N1CCC[C@H]1C(=O)N[C@@H](Cc1ccc(O)cc1)C(=O)O)C(C)C)CSSC[C@H](NC(=O)[C@H](CO)NC(=O)[C@H](CC(C)C)NC(=O)[C@H](CCC(=O)O)NC3=O)C(=O)N[C@@H](CCCNC(=N)N)C(=O)N[C@@H](CO)C(=O)N[C@@H](CC(C)C)C(=O)NCC(=O)N[C@@H](CC(C)C)C(=O)N[C@@H](CC(C)C)C(=O)NCC(=O)N[C@@H](CCCCN)C(=O)N2 (H-AFCNLRRCELSCRSLGLLGKCIGEACKCVPY-OH; disulfide 3-21, 8-26, 12-28) | < 39 | 40% |
